Experiments:
monomeric L-selectin = target: T1, monomeric L-selectin (Homo sapiens, UniProt P14151); experiment: BIAcore surface plasmon resonance, immobilized glycosaminoglycan vs monomeric L-selectin; format: binding; details: for Kd / koff / kon: L-selectin, GAG immobilized, 25° C.; for interaction with immobilized glycosaminoglycan (sensorgram): monomeric L-selectin
T1 construct: purchased Genzyme-Techne
T1 sequence (P14151 39-332 limits assumed): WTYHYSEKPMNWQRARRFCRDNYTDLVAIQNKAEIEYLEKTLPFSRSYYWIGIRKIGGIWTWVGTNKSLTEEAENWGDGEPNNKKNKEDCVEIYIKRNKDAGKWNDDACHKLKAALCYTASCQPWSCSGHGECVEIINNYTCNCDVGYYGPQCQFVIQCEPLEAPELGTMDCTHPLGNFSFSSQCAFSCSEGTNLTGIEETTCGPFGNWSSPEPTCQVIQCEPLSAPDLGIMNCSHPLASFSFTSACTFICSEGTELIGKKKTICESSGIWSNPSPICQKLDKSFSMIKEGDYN
Protocol: (§1) Affinity kinetics of the interaction between various CS/DS chains and each of L-selectin, P-selectin, CD44 and chemokine were examined by surface plasmon resonance using BIAcore™ biosensor [manufactured by BIAcore AB].
(§2) All experiments were performed at 25° C. At stages of washing and dissociation, buffer C (20 mM HEPES-NaOH, 0.15M NaCl, 1 mM CaCl2, 1 mM MgCl2, pH6.8) was used as a running buffer.
(§3) First, about 1.8 to 2.0 kiloresonance unit (1 kiloresonance unit=1 ng/mm^2) of streptavidin were covalently immobilized onto B1 sensor chip via a primary amine group using an amine coupling kit [manufactured by Amercham-Bioscience] according to the instruction provided by the manufacturer. The remaining activated groups were blocked with 150 μl of 1M ethanolamine-HCl (pH8.5). Then, each glycosaminoglycan which had been biotinylated at a reducing end was injected to a sensor tip surface by using EZ-link™ biotin-LC-hydrazide [manufactured by Pierce] so as to obtain about 150 resonance unit of an immobilization level, according to the method of Sadir et al. [J. Biol. Chem., 276, 8288-8296 (2001); all teachings of which are hereby incorporated by reference].
(§4) Binding assay was performed by injecting continuously each of various concentrations of secondary lymphoid tissue chemokine, γ-interferon inducible protein-10, stromal cell-derived factor-1β, monomeric L-selectin [manufactured by Genzyme-Techne], monomeric P-selectin [manufactured by Genzyme-Techne] and monomeric CD44, to a glycosaminoglycan-coupled sensor tip at a flow rate of 30 μl/min for 0 to 90 seconds, and then injecting a running buffer thereto. A response in resonance unit was recorded as a function of a time.
(§5) A sensor tip surface was regenerated with 300 μl of 1 M NaCl when chemokine or CD44 was used, or regenerated with 300 μl of 1 M NaCl, and additional 100 μl of 50 mM EDTA (pH8.0), when selectin was used. As a result of regeneration of a sensor tip surface, a remarkable change in a baseline was not observed.
(§6) An affinity kinetic parameter was determined by BIAevaluation 3.0 software [manufactured by Pharmacia Biosensor] using a single site binding model. […] In FIG. 6 and Table 3, SLC denotes secondary lymphoid tissue chemokin, IP-10 denotes γ-interferon inducible protein-10, SDF-1β denotes stromal cell-derived factor-1β, CS E denotes chondroitin sulfate E, and CS A denotes chondroitin sulfate A. In addition, in Table 3, Kd value for the interaction between monomeric CD44 and chondroitin sulfate E is a value calculated from a binding amount at equilibrium, and Kd value of the interaction between CD44 and hyaluronic acid is a value calculated using CD44-Ig.

[1] = target: γ-interferon inducible protein-10 (Homo sapiens, UniProt P02778); experiment: BIAcore surface plasmon resonance, immobilized glycosaminoglycan vs IP-10; format: binding; details: for Kd / koff / kon: GAG immobilized, 25° C.
Chain of γ-interferon inducible protein-10 (P02778 22-98): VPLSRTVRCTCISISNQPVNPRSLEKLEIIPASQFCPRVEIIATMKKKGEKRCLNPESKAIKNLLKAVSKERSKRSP
Protocol: as §1, §2, §3, §4, §5, §6

monomeric P-selectin = target: T2, monomeric P-selectin (Homo sapiens, UniProt P16109); experiment: BIAcore surface plasmon resonance, immobilized glycosaminoglycan vs monomeric P-selectin; format: binding; details: for Kd / koff / kon: P-selectin, GAG immobilized, 25° C.; for interaction with immobilized glycosaminoglycan (sensorgram): monomeric P-selectin
T2 construct: purchased Genzyme-Techne
T2 sequence (P16109 42-771 limits assumed): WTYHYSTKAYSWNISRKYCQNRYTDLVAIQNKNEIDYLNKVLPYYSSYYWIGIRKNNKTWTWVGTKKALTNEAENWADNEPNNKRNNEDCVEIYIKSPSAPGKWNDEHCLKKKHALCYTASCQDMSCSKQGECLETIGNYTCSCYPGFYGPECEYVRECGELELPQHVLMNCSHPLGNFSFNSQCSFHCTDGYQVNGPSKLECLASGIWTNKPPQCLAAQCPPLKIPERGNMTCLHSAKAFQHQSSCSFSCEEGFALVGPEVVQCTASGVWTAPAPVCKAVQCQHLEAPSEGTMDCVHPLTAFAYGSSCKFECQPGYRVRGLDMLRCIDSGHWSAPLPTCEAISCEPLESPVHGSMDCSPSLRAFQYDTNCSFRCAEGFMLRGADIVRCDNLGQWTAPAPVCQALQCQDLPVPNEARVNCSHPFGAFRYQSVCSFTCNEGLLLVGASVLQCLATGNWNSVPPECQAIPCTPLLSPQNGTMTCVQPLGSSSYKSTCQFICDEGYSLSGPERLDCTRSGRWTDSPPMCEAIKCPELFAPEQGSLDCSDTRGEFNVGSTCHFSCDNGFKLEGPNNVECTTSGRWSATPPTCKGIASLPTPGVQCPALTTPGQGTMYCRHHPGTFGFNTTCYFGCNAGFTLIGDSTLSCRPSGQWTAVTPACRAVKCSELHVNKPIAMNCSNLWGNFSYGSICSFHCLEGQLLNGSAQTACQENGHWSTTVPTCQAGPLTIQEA
Protocol: as §1, §2, §3, §4, §5, §6

L-selectin-Ig = target: T3, L-selectin-Ig (Homo sapiens, UniProt P14151); experiment: ELISA, biotinylated versican binding to L-selectin-Ig in presence of glycosaminoglycan; details: 100 μg/ml glycosaminoglycan; FIG. 5
T3 construct: purchased R & D Systems Inc
T3 sequence (P14151 with tags, fused parts or gaps limits assumed): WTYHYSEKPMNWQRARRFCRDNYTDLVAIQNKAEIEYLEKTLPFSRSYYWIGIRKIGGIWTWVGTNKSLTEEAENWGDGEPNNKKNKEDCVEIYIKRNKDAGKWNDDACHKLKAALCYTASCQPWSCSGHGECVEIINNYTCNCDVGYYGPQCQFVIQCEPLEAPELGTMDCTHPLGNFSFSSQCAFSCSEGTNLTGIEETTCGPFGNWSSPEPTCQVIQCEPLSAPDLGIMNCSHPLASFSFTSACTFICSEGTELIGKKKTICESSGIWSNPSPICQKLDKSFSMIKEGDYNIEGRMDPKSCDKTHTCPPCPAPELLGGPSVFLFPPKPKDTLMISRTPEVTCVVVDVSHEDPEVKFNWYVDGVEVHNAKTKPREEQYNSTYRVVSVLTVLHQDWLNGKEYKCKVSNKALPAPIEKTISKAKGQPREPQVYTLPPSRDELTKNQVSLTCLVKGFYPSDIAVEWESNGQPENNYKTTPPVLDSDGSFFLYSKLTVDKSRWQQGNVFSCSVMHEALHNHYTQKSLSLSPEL
Protocol: A well of a 96 well flat bottom microtiter plate was coated with BSA (5 μg/ml), anti-versican monoclonal antibody 2B1 (5 μg/ml), CD44-Ig (7 μg/ml), L-selectin-Ig (3 μg/ml), P-selectin-Ig (3 μg/ml) or chemokine (1 μg/ml), and then blocked with a phosphate buffered physiological saline containing 3% by weight of BSA. As the above chemokine, secondary lymphoid tissue chemokine, γ-interferon inducible protein-10, platelet factor 4, stromal cell-derived factor-1β [manufactured by Pepro Tech] and stromal cell-derived factor-1α [manufactured by Pepro Tech] were used.
Thereafter, the plate was washed with the buffer A, and enzyme-linked immunosorbent assay was performed in the same manner as that of the previous report [Kawashima, H. et al., J. Biol. Chem., 275, 35448-35456 (2000)]. Binding was determined by measuring absorbance at 620 nm using alkaline phosphatase-conjugated streptavidin and Blue Phos™ substrate. In FIG. 5, expression of an abscissa axis is the same as that of FIG. 4.

| Kd (monomeric L-selectin) | koff (monomeric L-selectin) | kon (monomeric L-selectin) | Kd [1] | koff [1] | kon [1] | Kd (monomeric P-selectin) | koff (monomeric P-selectin) | kon (monomeric P-selectin) | inhibition of binding between biotinylated versican and L-selectin (L-selectin-Ig) | interaction with immobilized glycosaminoglycan (sensorgram) (monomeric L-selectin) | interaction with immobilized glycosaminoglycan (sensorgram) [1] | interaction with immobilized glycosaminoglycan (sensorgram) (monomeric P-selectin) | Substance |
| --- | --- | --- | --- | --- | --- | --- | --- | --- | --- | --- | --- | --- | --- |
| 47.7 nM | 0.000366 s⁻¹ | 7680 M⁻¹ s⁻¹ | 73.2 nM | 0.0023 s⁻¹ | 31500 M⁻¹ s⁻¹ | 56.8 nM | 0.000759 s⁻¹ | 13400 M⁻¹ s⁻¹ | inhibited |  |  |  | chondroitin polysulfate [CPS] |
|  |  |  |  |  |  |  |  |  |  | did not interact | did not interact | did not interact | chondroitin sulfate A [CS A] |
| 21.2 nM | 0.000439 s⁻¹ | 20700 M⁻¹ s⁻¹ | 130 nM | 0.00211 s⁻¹ | 16200 M⁻¹ s⁻¹ | 29.7 nM | 0.00125 s⁻¹ | 42100 M⁻¹ s⁻¹ | inhibited | bound | bound | bound | chondroitin sulfate E [CS E] |
|  | 0.000289 s⁻¹ | 13700 M⁻¹ s⁻¹ | 34.9 nM | 0.000923 s⁻¹ | 26400 M⁻¹ s⁻¹ |  | 0.000664 s⁻¹ | 24000 M⁻¹ s⁻¹ | inhibited |  |  |  | dermatan polysulfate [DPS] |
